Laboratory results from patent US9238026B2, “Inhibitors of viral replication, their process of preparation and their therapeutical uses” (priority 2011, dated 2016).
Like-named read-outs stand apart in the source and are kept apart here.

Test system: NL4-3 strain of HIV-1
Test: microbe, parasite or virus in culture
Format: cell-based
Description: The antiviral activity, particularly against HIV, of compounds according to the invention is evaluated by the protocol described below.
Preparation of Virus stock of the NL4-3 strain of HIV-1
The virus was prepared as described in Lopez et al (Lopez et al, Proc Natl Acad Sci USA., 2006, 103(40):14947-52, by transfecting 2×10^6 293T cells (CRL-1573, ATCC) with following modifications: 6 μg of NL4-3 proviral DNA molecular clone were mixed with Fugene 6 transfection reagent from Roche, and used according to manufacturer's instructions. Forty eight hours later, transfected cell supernatants were harvested, filtered through 0.45-μm-pore-size filters, quantified for HIV-1 p24 antigen by using a Innotest HIV antigen mAb assay (Ingen) according to manufacturer's instructions, and used in infection experiments.
Serial dilutions of compounds to be tested were prepared in complete RPMI medium from 10 mM DMSO stock solutions, and distributed in a volume of 20 μl in 96 well Falcon 353072 Microtest™ tissue culture plate, in order to get 0.5% DMSO final concentration in each well, after the addition of infected cells. Control wells contained also 0.5% DMSO final concentration but no compound.
MT4 cells (from the NIH AIDS Research and Reference Reagent Program) in RPMI complete medium were counted (10×10^6 cells per well in Falcon 353047 Multiwell™ 24 well) and infected for 2 hours at 37°, at a multiplicity of infection (moi) of 0.0001-0.00001. Cells were then centrifuged 3 min at 3000 rpm, and washed two times in 1 ml PBS to remove viruses that have not entered in cells. Infected cells were resuspended in complete RPMI at 1.25×10^6 cells/ml, and […] of infected cells were distributed in each well containing compounds to be tested or control wells. The plates were then incubated at 37° for 5 days.
Assay used to measure the inhibition of HIV replication by the compounds
(according to Gregg S. Jones et al., Antimicrobial Agents and Chemotherapy, 2009, 53 (3): 1194-1203).
After 5 days of incubation, 50 μl of CellTiter-Glo reagent (Promega Biosciences, Inc., Madison Wis., USA) were added to each well. Cell lysis was carried out at room temperature during 10 min, 150 μl of lysates were transferred in Packard Optiplate 96 well, and luminescence was read on a Fluoroskan (Thermo Scientific).
The EC50, or effective concentration 50, is the concentration of compound leading to 50% of cyto-protection in a Cell-Titer-Glo® viability assay based on MT4 cells infected with NL4.3 virus.

[1] = Human immunodeficiency virus 1, NL43, 120 h, concentration leading to 50% of cyto-protection, MT4 cells infected with NL4.3 virus, 5 days incubation, CellTiter-Glo, read-out: EC50

| SMILES | EC50 [1] | EC50 (Human immunodeficiency virus 1, NL43, MT4, 120 h) |
| --- | --- | --- |
| Cc1sc(C)c(C(OC(C)(C)C)C(=O)O)c1-c1ccc2c(c1)CCCC2 (stereo not shown) [Example 39, 2-(tert-butoxy)-2-[2,5-dimethyl-4-(5,6,7,8-tetrahydronaphthalen-2-yl)thiophen-3-yl]acetic acid] | 41 µM |  |
| Cc1sc(C)c(C(OC(C)(C)C)C(=O)O)c1-c1ccccc1Cl (stereo not shown) [Example 51, tert-butoxy-[4-(2-chloro-phenyl)-2,5-dimethyl-thiophen-3-yl]-acetic acid] | 41 µM |  |
| Cc1sc(C)c(C(OC(C)(C)C)C(=O)O)c1C1=CCC(C)(C)CC1 (stereo not shown) [Example 52, tert-butoxy-[4-(4,4-dimethyl-cyclohex-1-enyl)-2,5-dimethyl-thiophen-3-yl]-acetic acid] |  | 33 µM |
| Cc1sc(C)c(C(OC(C)(C)C)C(=O)O)c1-c1ccc(Cl)cc1 (stereo not shown) [Example 50, tert-butoxy-[4-(4-chloro-phenyl)-2,5-dimethyl-thiophen-3-yl]-acetic acid] | 44 µM |  |
| Cc1sc(C)c(C(OC(C)(C)C)C(=O)O)c1C1=CCCCCC1 (stereo not shown) [Example 31, 2-(tert-butoxy)-2-[4-(cyclohept-1-en-1-yl)-2,5-dimethylthiophen-3-yl]acetic acid] | 29 µM |  |
| CC(C)(C)OC(C(=O)O)c1c(C(F)(F)F)nn(C2CCCCC2)c1-c1ccc2c(c1)CCCO2 (stereo not shown) [Example 54, 2-(tert-butoxy)-2-[1-cyclohexyl-5-(3,4-dihydro-2H-1-benzopyran-6-yl)-3-(trifluoromethyl)-1H-pyrazol-4-yl]acetic acid] | 2.2 µM |  |
| Cc1sc(Cl)c(-c2ccc3c(c2)CCCO3)c1C(OC(C)(C)C)C(=O)O (stereo not shown) [Example 44, 2-(tert-butoxy)-2-[5-chloro-4-(3,4-dihydro-2H-1-benzopyran-6-yl)-2-methylthiophen-3-yl]acetic acid] | 16 µM |  |
| Cc1cccc2sc(C(OC(C)(C)C)C(=O)O)c(-c3ccc4c(c3)CCCO4)c12 (stereo not shown) [Example 23, 2-(tert-butoxy)-2-[3-(3,4-dihydro-2H-1-benzopyran-6-yl)-4-methyl-1-benzothiophen-2-yl]acetic acid] | 23 µM |  |
| Cc1sc(C)c(C(OC(C)(C)C)C(=O)O)c1C1=CCCCC1 (stereo not shown) [Example 29, 2-(tert-butoxy)-2-[4-(cyclohex-1-en-1-yl)-2,5-dimethylthiophen-3-yl]acetic acid] | 33 µM |  |
| Cc1sc(C)c(C(SC(C)(C)C)C(=O)O)c1-c1ccc2c(c1)CCCO2 (stereo not shown) [Example 32, 2-(tert-butylsulfanyl)-2-[4-(3,4-dihydro-2H-1-benzopyran-6-yl)-2,5-dimethylthiophen-3-yl]acetic acid] | 26 µM |  |
| Cc1cccc2c1C(c1ccc3c(c1)CCCO3)=C(C(OC(C)(C)C)C(=O)O)S2(=O)=O (stereo not shown) [Example 24, 2-(tert-butoxy)-2-[3-(3,4-dihydro-2H-1-benzopyran-6-yl)-4-methyl-1,1-dioxo-1λ^6-benzothiophen-2-yl]acetic acid] | 11 µM |  |
| CC1=C(c2ccc3c(c2)CCCO3)C(C(OC(C)(C)C)C(=O)O)=C(C)S1(=O)=O (stereo not shown) [Example 18, (tert-butoxy)[4-(3,4-dihydro-2H-1-benzopyran-6-yl)-2,5-dimethyl-1,1-dioxo-1λ^6-thiophen-3-yl]acetic acid] | 34 µM |  |
| Cc1sc(C)c(C(OC(C)(C)C)C(=O)O)c1-c1ccc2c(c1)CCCO2 (stereo not shown) [Example 17, 2-(tert-butoxy)-2-[4-(3,4-dihydro-2H-1-benzopyran-6-yl)-2,5-dimethylthiophen-3-yl]acetic acid] | 26 µM |  |
